{"source": "patent US9974305B2", "about": "“Fungicidal or bactericidal composition, and method for controlling diseases” (NISSAN CHEMICAL INDUSTRIES, LTD., priority 2014, dated 2018)", "assay_type_in_all_cases": "in vivo", "key": {"[1]": {"test_system": "cucumber gray mold fungus (Botrytis cinerea)", "assay": "Preventive test against gray mold on cucumber cotyledon leaves, spray treatment, preventive value and Colby expected value (Test Examples 1-4)", "conditions": "single compound; for pest or weed control at 3 ppm / pest or weed control at 1 ppm: Botrytis cinerea, 72 h; for pest or weed control at 3 ppm: read-out: Preventive value", "summary_of_the_method": "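Cucumber (Sagami-hanjiro) cotyledons sprayed with water-diluted formulations of ingredient A, B or mixtures, air-dried, detached, and drop-inoculated with Botrytis cinerea conidia mixed 1:1 with PDA. After 3 days at 20 °C, lesion area gave preventive value versus untreated; Colby expected value E=X+Y−XY/100 computed for mixtures.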"}, "[2]": {"test_system": "wheat glume blotch (Leptosphaeria nodorum)", "assay": "Efficacy test on wheat glume blotch, spray treatment and prevention test (Test Example 8)", "conditions": "spray, lesion area ratio; for pest or weed control at 3 ppm / pest or weed control at 10 ppm: Parastagonospora nodorum, read-out: Preventive value", "summary_of_the_method": "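Wheat seedlings (Haruyutaka, 1-leaf stage) sprayed with diluted two-component formulation; one day later spray-inoculated with L. nodorum spores (1×100,000 cfu/ml), 48 h at 20° C, >95% RH, then 7 days greenhouse. Lesion area ratio gives preventive value versus untreated; synergy assessed by Colby method.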"}, "[3]": {"test_system": "rice sheath blight fungus (Rhizoctonia solani)", "assay": "Efficacy test on rice sheath blight, spray treatment and prevention test (Test Examples 5-6)", "conditions": "single compound 250 ppm, lesion height", "experimental": "An agent comprising the following compound listed in Table 2 (active ingredient A) and the compound listed in Table 6 (C17: active ingredient B) as active ingredients, was prepared in accordance with the above Formulation Example. The agent was diluted with water to a predetermined concentration to obtain a test solution. Then, in a plastic pot of 90 cm^3, rice (Nipponbare) was seeded by 5 grains in one place, and to the grown seedlings in 4 seedling phase, the test solution was applied by a spray gun in an amount of 5 ml per pot, for treatment.\nOne day after the treatment, 1 g of mycelium flora of rice sheath blight fungus (Rhizoctonia solani) cultured in bran medium, was put by […] to a close-to-ground part of seedlings, and the pot was placed in a moist chamber set in temperature of 25° C. and humidity more than 95% RH for eight days. The height of the lesions which appeared in the highest position from the close-to-ground part (lesion height) was investigated, and the preventive value was calculated in accordance with the following formula. Preventive value=[1−(treated plot lesion height/untreated plot lesion height)]×100\nFurther, from the preventive value for each agent concentration, synergy was calculated by using the Colby method (Colby S. R. 1976, Weeds 15, 20-22).\nUsing the following compound listed in Table 2 (active ingredient A) and the compound listed in Table 6 (C17: active ingredient B) as active ingredients, a preventive test on rice sheath blight was conducted in accordance with the above Test Example 5."}, "[4]": {"test_system": "wheat powdery mildew (Blumeria graminis)", "assay": "Efficacy test on wheat powdery mildew, seed treatment (Test Example 10)", "conditions": "wheat (Norin 61)", "experimental": "An agent comprising the following compound listed in Table 2 (active ingredient A) and the compound listed in Table 11 (H35: active ingredient B) as active ingredients, was prepared in accordance with the above Formulation Example. This agent was diluted with water to a predetermined concentration to obtain a test solution. A predetermined amount of test solution was put in a glass bottle of 5 ml, and 0.5 g (approximately 15 grains) of wheat seeds (variety: Norin 61) were added, stirred and air-dried. In each pot with a diameter of 7 cm and having soil put therein, 3 grains were seeded and grown for 14 days. To the wheat seedlings grown to the 1-leaf stage, a spore suspension (100,000 cfu/ml) of wheat powdery mildew (Blumeria graminis) was spray-inoculated. After placing the pot in a glass greenhouse for 10 days, the ratio of the formed lesion area occupying the inoculated leaves was measured, and the preventive value was calculated in accordance with the following formula. Preventive value=[1−(treated plot lesion area ratio/untreated plot lesion area ratio)]×100\nFurther, from the preventive value at each agent concentration, synergy was calculated by using the Colby method (Colby S. R. 1976, Weeds 15, 20-22)."}, "[5]": {"conditions": "processing amount 5 mg/1 g seed"}, "[6]": {"conditions": "processing amount 10 mg/1 g seed"}}, "note": "Read-outs that look alike come from different tables or passages of the source."}
{"smiles": "CC(C)O/N=C(/CNC(=O)c1ccccc1C(F)(F)F)c1ncc(Cl)cc1Cl", "note": "[Compound No. 4]", "values": [{"measurement": "Preventive value", "setting": "[1]; Test Example 1, 3 ppm spray", "value": 75}, {"measurement": "Preventive value", "setting": "[1]; Test Example 3, 3 ppm spray", "value": 70}, {"measurement": "Preventive value", "setting": "[1]; Test Example 4, 3 ppm spray", "value": 60}, {"measurement": "Preventive value", "setting": "[2]; single compound 3 ppm", "value": 40}, {"measurement": "Preventive value", "setting": "[2]; single compound 10 ppm", "value": 65}, {"measurement": "Preventive value", "setting": "[3]; Test Example 5", "value": 7}, {"measurement": "Preventive value", "setting": "[4]; [5]", "value": 97}, {"measurement": "Preventive value", "setting": "[4]; [6]", "value": 99}]}
{"smiles": "COc1c(Cl)cnc(C(CNC(=O)c2ccccc2C(F)(F)F)=NOC(C)C)c1Cl", "note": "[Compound No. 9]", "values": [{"measurement": "Preventive value", "setting": "[1]; Test Example 1, 1 ppm spray, cucumber cotyledon, 3 days at 20° C.", "value": 75}, {"measurement": "Preventive value", "setting": "[1]; Test Example 3, 1 ppm spray", "value": 70}, {"measurement": "Preventive value", "setting": "[1]; Test Example 4, 1 ppm spray", "value": 72}, {"measurement": "Preventive value", "setting": "[2]; single compound 3 ppm", "value": 60}, {"measurement": "Preventive value", "setting": "[2]; single compound 10 ppm", "value": 75}, {"measurement": "Preventive value", "setting": "[3]; Test Example 6", "value": 10}, {"measurement": "Preventive value", "setting": "[4]; [5]", "value": 100}, {"measurement": "Preventive value", "setting": "[4]; [6]", "value": 100}]}
{"smiles": "CC#Cc1cnc(/C(CNC(=O)c2cn(C)nc2C(F)F)=N\\OC(C)C)c(Cl)c1", "note": "[Compound No. 20, (Z)—N-[2-[3-chloro-5-(1-propynyl)pyridin-2-yl]-2-(isopropoxyimino)ethyl]-3-difluoromethyl-1-methyl-1H-pyrazole-4-carboxamide]", "values": [{"measurement": "pest or weed control at 3 ppm", "setting": "[1]; Test Example 1, 3 ppm spray", "value": 63, "unit": "%"}, {"measurement": "pest or weed control at 3 ppm", "setting": "[1]; Test Example 3, 3 ppm spray", "value": 65, "unit": "%"}, {"measurement": "pest or weed control at 3 ppm", "setting": "[1]; Test Example 4, 3 ppm spray", "value": 65, "unit": "%"}, {"measurement": "pest or weed control at 3 ppm", "setting": "[2]; single compound 3 ppm", "value": 80, "unit": "%"}, {"measurement": "pest or weed control at 10 ppm", "setting": "[2]; single compound 10 ppm", "value": 85, "unit": "%"}, {"measurement": "Preventive value", "setting": "[3]; Test Example 5", "value": 0}, {"measurement": "Preventive value", "setting": "[4]; [5]", "value": 100}, {"measurement": "Preventive value", "setting": "[4]; [6]", "value": 100}]}
{"smiles": "CON=C(CNC(=O)c1cn(C)nc1C(F)F)c1ncc(C#CC(C)(C)C)cc1Cl", "note": "[compound 28]", "values": [{"measurement": "Preventive value", "setting": "[1]; Test Example 1, 3 ppm spray", "value": 75}, {"measurement": "Preventive value", "setting": "[1]; Test Example 3, 3 ppm spray", "value": 77}, {"measurement": "Preventive value", "setting": "[1]; Test Example 4, 3 ppm spray", "value": 75}, {"measurement": "Preventive value", "setting": "[2]; single compound 3 ppm", "value": 60}, {"measurement": "Preventive value", "setting": "[2]; single compound 10 ppm", "value": 85}, {"measurement": "Preventive value", "setting": "[3]; Test Example 5", "value": 9}, {"measurement": "Preventive value", "setting": "[4]; [5]", "value": 100}, {"measurement": "Preventive value", "setting": "[4]; [6]", "value": 100}]}
{"smiles": "CC(C)ON=C(CNC(=O)c1ccccc1C(F)(F)F)c1ncc(C(F)(F)F)cc1Cl", "note": "[compound 14]", "values": [{"measurement": "Preventive value", "setting": "[1]; Test Example 1, 3 ppm spray", "value": 75}, {"measurement": "Preventive value", "setting": "[1]; Test Example 3, 3 ppm spray", "value": 75}, {"measurement": "Preventive value", "setting": "[1]; Test Example 4, 3 ppm spray", "value": 65}, {"measurement": "Preventive value", "setting": "[2]; single compound 3 ppm", "value": 75}, {"measurement": "Preventive value", "setting": "[2]; single compound 10 ppm", "value": 80}, {"measurement": "Preventive value", "setting": "[3]; Test Example 5", "value": 6}, {"measurement": "Preventive value", "setting": "[4]; [5]", "value": 97}, {"measurement": "Preventive value", "setting": "[4]; [6]", "value": 100}]}
{"smiles": "CC(C)O/N=C(/CNC(=O)c1cn(C)nc1C(F)F)c1ncc(C#CC2CC2)cc1Cl", "note": "[Compound No. 25, (Z)—N-[2-[3-chloro-5-(cyclopropylethynyl)pyridin-2-yl]-2-(isopropoxyimino)ethyl]-3-difluoromethyl-1-methyl-1H-pyrazole-4-carboxamide]", "values": [{"measurement": "pest or weed control at 1 ppm", "setting": "[1]; Test Example 2, 1 ppm spray", "value": 63, "unit": "%"}, {"measurement": "pest or weed control at 1 ppm", "setting": "[1]; Test Example 3, 1 ppm spray", "value": 75, "unit": "%"}, {"measurement": "pest or weed control at 1 ppm", "setting": "[1]; Test Example 4, 1 ppm spray", "value": 75, "unit": "%"}, {"measurement": "pest or weed control at 3 ppm", "setting": "[2]; single compound 3 ppm", "value": 75, "unit": "%"}, {"measurement": "pest or weed control at 10 ppm", "setting": "[2]; single compound 10 ppm", "value": 85, "unit": "%"}, {"measurement": "Preventive value", "setting": "[3]; Test Example 6", "value": 8}, {"measurement": "Preventive value", "setting": "[4]; [5]", "value": 100}, {"measurement": "Preventive value", "setting": "[4]; [6]", "value": 100}]}
